Data on one molecule can be found in patent US20170313669A1, “LACTONE COMPOUNDS AND METHODS OF MAKING AND USING SAME” (THE SCRIPPS RESEARCH INSTITUTE, priority 2015, published 2017).

One assay has as its target T1, ABHD2 (Homo sapiens, UniProt P08910).
T1 construct: All ABPP-SILAC experiments were performed using the human COLO205 colon cancer cell line; endogenous in cells; host or cells: COLO205
Put plainly: ABPP-SILAC, COLO205 cells treated in situ. The format is cell-based. Particulars: COLO 205, 4 h.

For the next assay, the target named is T2, mouse ABHD16A (Mus musculus, UniProt Q9Z1Q2).
T2 construct: full-length cDNA of human ABHD16A (Open Biosystems Catalog # MHS6278-202758315) or murine ABHD16A (Open Biosystems Catalog # MMM1013-202760516); host or cells: HEK293T, transient, pCMV-SPORT6
T2 sequence (Q9Z1Q2 1-558): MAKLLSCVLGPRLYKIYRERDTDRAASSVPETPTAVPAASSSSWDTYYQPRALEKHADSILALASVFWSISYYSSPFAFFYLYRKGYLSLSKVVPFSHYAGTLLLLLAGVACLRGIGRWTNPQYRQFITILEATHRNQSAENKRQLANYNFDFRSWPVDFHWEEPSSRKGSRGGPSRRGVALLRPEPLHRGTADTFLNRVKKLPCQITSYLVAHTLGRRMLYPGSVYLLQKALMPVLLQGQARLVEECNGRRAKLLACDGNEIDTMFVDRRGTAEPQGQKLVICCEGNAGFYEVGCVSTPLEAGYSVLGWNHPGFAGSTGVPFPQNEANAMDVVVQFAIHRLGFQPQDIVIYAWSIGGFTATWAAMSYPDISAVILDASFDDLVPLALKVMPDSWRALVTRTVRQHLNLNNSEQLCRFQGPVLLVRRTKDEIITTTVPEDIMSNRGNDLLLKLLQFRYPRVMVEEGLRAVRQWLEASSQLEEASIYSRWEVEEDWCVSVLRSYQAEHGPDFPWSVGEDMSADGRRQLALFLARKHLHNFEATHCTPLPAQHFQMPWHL
Put plainly: Competitive gel-based ABPP, mouse ABHD16A-transfected HEK293T proteome. In kind it is biochemical. Particulars: 30 min, 37° C., then FP-rhodamine 2 μM.

The test system of the next assay is K562 cells. Put plainly: PS lipase activity of membrane fraction after in situ treatment. Particulars: 1 μM, 4 h.
For the next assay, the system named is serine hydrolases. Put plainly: Gel-based ABPP in K562, off-targets. The format is cell-based, human. As to the method:
The K562 cell line was treated with varying concentrations of KC01 for 4 h and the cell membrane fractions analyzed by gel-based ABPP. More specifically, the membrane proteome of K562 cells (left gel, FIG. 9) or cultured K562 cells (right gel, FIG. 9) were treated with the indicated concentrations of KC01 (in vitro: 1 mg/mL proteome; 30 min treatment, 37° C.; in situ: 2×10^6 cells; 4 h treatment, 37° C.), followed by FP-rhodamine (added in vitro to cell proteomes at 2 μM for 30 min, 37° C.) and analyzed by gel-based ABPP. Estimated in vitro and in situ IC50 values for KC01 from the gel-based ABPP experiments were 0.2-0.5 μM. Gel-based ABPP experiments were performed in triplicate with consistent results.

For assay [1], the target named is PS lipase activity of mouse peritoneal macrophages (Mus musculus, UniProt Q9Z1Q2). Put plainly: PS lipase activity of peritoneal macrophage membrane proteomes. Particulars: LPS-stimulated macrophages; 1 μM, 30 min, 37° C.
For a further assay, the system named is COLO205 cells. Put plainly: LC-MS lipid profiling of treated cells. The format is cell-based, human. Particulars: 1 μM, 4 h. The method, then: ABHD16A^+/+, ABHD16A^+/+, and ABHD16A^−/− littermates of 10 weeks age were anaesthetized by isoflurane and killed by decapitation. The tissues (brains were sliced laterally into two hemispheres; entire spinal cord) were harvested, weighed, and immediately submerged in liquid N2. Tissues (one half brain or entire spinal cord) were then Dounce-homogenized in 8 mL of 2:1:1 (vol/vol/vol) CHCl3: MeOH: PBS containing the internal standard mix (1 nmol 17:1 FFA, and 100 pmol each of 17:1 lyso-PS, 17:0-20:4 PS, 17:1 lyso-PC, 17:0-20:4 PC, 17:0-20:4 PE and 50 pmol of 2-AG-d5). Homogenates were transferred to a glass vial and centrifuged at 2800×g for 10 minutes to separate the two phases. The organic phase (bottom) was removed, 200 μL of formic acid was added to acidify the aqueous homogenate (to enhance extraction of phospholipids), and CHCl3 was added to make up 8 mL volume. The mixture was vortexed, and separated using centrifugation described above. Both the organic extracts were pooled, and dried under a stream of N2. The metabolomes were then re-solubilized in 120 μL of 2:1 (vol/vol) CHCl3: MeOH, and 10 μL were used for the targeted LC-MS analysis. For cellular and secreted metabolomics studies, serum free phenol red free RPMI 1640 media was used to prevent any promiscuous contributions from serum lipids. For the cellular metabolomics studies, 3×10^6 cells were used for all cancer cell lines (COLO205, K562, and MCF7) and lymphoblast cell lines (LCLs), and 2×10^6 cells were used for thioglycollate-elicited peritoneal macrophages. […]
All the metabolites analyzed in this study were quantified using the multiple reaction monitoring (MRM) methods the targeted LC/MS analysis was done using an Agilent Technologies 6460 Triple Quad LC/M with an Agilent Technologies 1290 Infinity series quaternary pump. All data was collected using the LC/MS Data Acquisition mode of the Mass Hunter Workstation Software version B.05.00 build 5.0.5027.0 SP, and analyzed using the Quantitative Analysis mode of the same software. […]

T1 sequence (P08910 whole entry): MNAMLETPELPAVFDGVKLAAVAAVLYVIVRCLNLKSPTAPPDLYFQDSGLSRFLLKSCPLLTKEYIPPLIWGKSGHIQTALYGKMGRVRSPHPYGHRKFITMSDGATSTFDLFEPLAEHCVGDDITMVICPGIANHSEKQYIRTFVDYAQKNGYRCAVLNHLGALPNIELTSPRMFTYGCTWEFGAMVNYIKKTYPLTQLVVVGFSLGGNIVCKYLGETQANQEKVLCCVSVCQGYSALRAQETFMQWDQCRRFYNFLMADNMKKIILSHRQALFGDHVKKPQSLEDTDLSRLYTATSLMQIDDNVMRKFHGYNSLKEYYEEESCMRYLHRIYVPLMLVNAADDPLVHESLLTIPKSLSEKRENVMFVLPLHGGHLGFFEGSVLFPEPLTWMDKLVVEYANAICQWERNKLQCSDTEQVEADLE

In the case of `CCCCCCCCCCCCCC1OC(=O)/C1=C\CCCCC(N)=O` (centres unmarked) [KC01, (Z)-6-(2-oxo-4-tridecyloxetan-3-ylidene)hexanamide], at ABHD2, 1 µM produced 94% inhibition. On mouse ABHD16A, the IC50 is roughly 500 nM. Moreover, the “decrease of PS-lipase activity vs DMSO” value in the assay with K562 cells is greater than 90%. In addition, the off-targets detected result with serine hydrolases is on record as “Very few off-targets”. For the same molecule, the PS lipase activity result in assay [1] was “blocked”. In the assay with COLO205 cells, the “other lipids (PSs, PCs, PEs, lyso-PCs, lyso-PEs, MAGs)” value was “No changes”. Also, the “secreted lyso-PSs (18:1 and 18:0)” value in the assay on COLO205 cells (serum-free media) is reported as “decreased”. For the same molecule, the “cellular lyso-PSs” value in the assay on COLO205 cells (vs DMSO) is given as “significant reductions in all detected cellular lyso-PSs”.

As a reminder, the inhibition is the drop in the measured response relative to a control, in per cent. Read a high inhibition as a response far below the control. A word on the IC50: it is the concentration at which inhibition is half-maximal. Low readings indicate inhibition by little substance, high ones a need for much substance.
